The text below walks through data of patent publication US10179125B2, “Substituted pyridines as bromodomain inhibitors” (Zenith Epigenetics Ltd., priority 2014, dated 2019).

Each structure is given as a SMILES string.

Experiment [1] deals with hIL-6. Nature of the experiment: Inhibition of hIL-6 mRNA transcription in LPS-stimulated U937 cells. The experiment is classed as cell-based, Human. The following applies: Homo sapiens, U-937, PMA-differentiated U937 cells, 1 h pretreatment, LPS 3 h, read-out: IL-6 activity. Put shortly: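 U937 cells differentiated 3 days with 60 ng/mL PMA, pretreated 1 h with compound (0.1% DMSO), then stimulated with 1 ug/mL E. coli LPS for 3 h at 37 °C. IL-6 mRNA measured by one-step TaqMan qRT-PCR, normalized to cyclophilin; fold expression relative to control, triplicate wells.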

Experiment [2] has as its target T1, Brd4 bromodomain 1 (BRD4(1)) (Homo sapiens, UniProt O60885).
T1 construct: made in house; host or cells: E. coli BL21(DE3)
The experiment in a line: Inhibition of tetra-acetylated histone H4 binding to BET bromodomain (HTRF/FRET). The conditions noted are these: His-tagged bromodomain 200 nM, biotinylated tetra-acetylated histone H4 peptide, 2 h room temperature. The essentials:
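His-tagged BRD4(1) (200 nM, E. coli-expressed) incubated with biotinylated tetra-acetylated histone H4 peptide (25-50 nM) plus Eu-cryptate streptavidin and XL665 anti-His, with compound (0.2% DMSO), 2 h at room temperature in HEPES pH 7.4 buffer. HTRF 665/620 nm ratio decrease gives IC50.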
On the technique in general: Time-resolved FRET reads energy transfer from a long-lived donor to a nearby acceptor.

Experiment [3] concerns cMYC. Nature of the experiment: Inhibition of cMYC expression in MV4-11 cells (real-time PCR). The conditions noted are these: 3 h, cMYC mRNA; for IC50: Homo sapiens, read-out: c-myc activity. The experiment is classed as cell-based, Human. The essentials: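 MV4-11 cells (2.5×10^4/well) treated 3 h at 37° C with compound in IMDM/10% FBS, 0.1% DMSO vehicle, in triplicate. cMYC mRNA quantified by one-step TaqMan RT-qPCR, Ct normalised to cyclophilin; fold expression relative to DMSO control.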

The subject of experiment [4] is hApoA-I. Nature of the experiment: Up-regulation of hApoA-1 mRNA transcription in Huh7 cells. The following applies: EC170, Huh7 cells, 48 h. It counts as cell-based. The procedure: In this example, hApoA-I mRNA in tissue culture cells was quantitated to measure the transcriptional up-regulation of hApoA-I when treated with a compound of the present disclosure.
Huh7 cells (2.5×10^5 per well) were plated in a 96-well plate using 100 μL DMEM per well, (Gibco DMEM supplemented with penicillin/streptomycin and 10% FBS), 72 h before the addition of the compound. The cells are treated with increasing concentrations of the compound or […] (0.1%), and incubated at 37° C., 5% CO2 for 48 h. Spent media was removed from the Huh-7 cells and placed on ice for immediate use with the “LDH cytotoxicity assay Kit II” from Abcam. The cells remaining in the plate were rinsed with 100 μL PBS. Cells were harvested using the mRNA Catcher PLUS kit according to manufacturer's instructions. The eluted mRNA was then used in a one-step quantitative real-time PCR reaction, using components of the RNA UltraSense™ One-Step Kit (Life Technologies) together with Applied Biosystems TaqMan® primer-probes for hApoA-I and Cyclophilin. Real-time PCR plates were run on a ViiA™7 real time PCR machine (Applied Biosystems), data was analyzed, normalizing the Ct values for hApoA-1 to an internal control, prior to determining the fold induction of each unknown sample, relative to the control.

For experiment [5], the system named is Human AML MV-4-11 cells. Nature of the experiment: Inhibition of cell proliferation in MV4-11 cells (CellTiter Aqueous One). It counts as cell-based. The following applies: 72 h; for IC50: Homo sapiens. The essentials: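 MV4-11 cells (5×10^4/well) in IMDM + 10% FBS were treated with graded compound or 0.1% DMSO for 72 h at 37 °C, 5% CO2, in triplicate. CellTiter Aqueous One was added for 3–4 h and absorbance read at 490 nm. Background-corrected signal was expressed relative to DMSO and used to calculate IC50.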

Experiment [6] relates to hIL-17. Nature of the experiment: Inhibition of hIL-17 mRNA transcription in OKT3-stimulated peripheral blood mononuclear cells. It counts as cell-based. The following applies: human PBMC, OKT3 antibody 6 h, read-out: IL-17 activity. The procedure:
Human peripheral blood mononuclear cells were plated (2.0×10^5 cells per well) in a 96-well plate in 45 μL OpTimizer T Cell expansion media (Life Technologies) containing 20 ng/ml IL-2 and penicillin/streptomycin. The cells were treated with increasing concentrations of the test compound or DMSO (0.1%), and incubated at 37° C., 5% CO2 for 1 h before addition of 10× stock OKT3 antibody at 10 ug/ml in media. Triplicate wells were used for each concentration, Cells were incubated at 37° C., 5% CO2 for 6 h before the cells were harvested. At time of harvest, cells were pelleted by centrifugation at 800 rpm for 5 min. Cells were harvested using the mRNA Catcher PLUS kit according to manufacturer's instructions. The eluted mRNA was then used in a one-step quantitative real-time PCR reaction, using components of the RNA UltraSense™ One-Step Kit (Life Technologies) together with Applied Biosystems TaqMan® primer-probes for hIL-17 and Cyclophilin. Real-time PCR plates were run on a ViiA™ 7 real time PCR machine (Applied Biosystems), data was analyzed, normalizing the Ct values for hIL-17 to an internal control, prior to determining the fold induction of each unknown sample, relative to the control.

As for `COc1ncc(-c2c(C)noc2C)cc1Nc1cccnc1` [Example 1, 5-(3,5-dimethylisoxazol-4-yl)-2-methoxy-N-(pyridin-3-yl)pyridin-3-amine], the IC50 in experiment [1] lay in the range of 3000 to 30000 nM; in experiment [2], 300 to 3000 nM; in experiment [3], 3000 to 30000 nM; in experiment [5], 3000 to 30000 nM. The ApoA-1 activity result in experiment [4] is “++ (EC170 value between 0.3 and 3 μM were deemed to be very active (++))”.

Regarding `COc1ncc(-c2c(C)noc2C)cc1NCc1ccccc1` [Example 2, N-benzyl-5-(3,5-dimethylisoxazol-4-yl)-2-methoxypyridin-3-amine], the IC50 is 300 to 3000 nM in experiment [1]; no more than 300 nM in experiment [2]; 300 to 3000 nM in experiment [3]; 300 to 3000 nM in experiment [5]; 300 to 3000 nM in experiment [6]. Moreover, the ApoA-1 activity result in experiment [4] was “++ (EC170 value between 0.3 and 3 μM were deemed to be very active (++))”.

`COc1ncc(-c2c(C)noc2C)cc1NCc1ccc(F)cc1` [Example 6, 5-(3,5-dimethylisoxazol-4-yl)-N-(4-fluorobenzyl)-2-methoxypyridin-3-amine]: the IC50 is 300 to 3000 nM in experiment [1]; no more than 300 nM in experiment [2]; 300 to 3000 nM in experiment [3]; 3000 to 30000 nM in experiment [5]; 300 to 3000 nM in experiment [6].

With `COc1ncc(-c2c(C)noc2C)cc1NCc1ccsc1` [Example 9, 5-(3,5-dimethylisoxazol-4-yl)-2-methoxy-N-(thiophen-3-ylmethyl)pyridin-3-amine], the IC50 in experiment [1] is no more than 300 nM; in experiment [2], no more than 300 nM; in experiment [3], 300 to 3000 nM; in experiment [5], 300 to 3000 nM; in experiment [6] it was 300 to 3000 nM. In addition, the ApoA-1 activity entry in experiment [4] was “++ (EC170 value between 0.3 and 3 μM were deemed to be very active (++))”.

As for `COc1ncc(-c2c(C)noc2C)cc1OCc1ccccc1` [Example 10, 4-(5-(benzyloxy)-6-methoxypyridin-3-yl)-3,5-dimethylisoxazole], the IC50 in experiment [1] is 300 to 3000 nM; in experiment [2] it was no more than 300 nM; in experiment [3], 300 to 3000 nM; in experiment [5], 3000 to 30000 nM; in experiment [6], 3000 to 30000 nM.

`COc1ncc(-c2c(C)noc2C)cc1NCc1ccc(C#N)cc1` [Example 11, 4-(((5-(3,5-dimethylisoxazol-4-yl)-2-methoxypyridin-3-yl)amino)methyl)benzonitrile]: the IC50 was 300 to 3000 nM in experiment [1]; no more than 300 nM in experiment [2]; 300 to 3000 nM in experiment [3]; 3000 to 30000 nM in experiment [5]; 300 to 3000 nM in experiment [6].

On to `COc1ncc(-c2c(C)noc2C)cc1NCc1ccc(Cl)cc1` [Example 14, N-(4-chlorobenzyl)-5-(3,5-dimethylisoxazol-4-yl)-2-methoxypyridin-3-amine], for which the IC50 in experiment [1] was 3000 to 30000 nM; in experiment [2], no more than 300 nM; in experiment [5], 3000 to 30000 nM; in experiment [6], 300 to 3000 nM.

On to `COc1ncc(-c2c(C)noc2C)cc1Nc1c(C)noc1C` [Example 43, N-(5-(3,5-dimethylisoxazol-4-yl)-2-methoxypyridin-3-yl)-3,5-dimethylisoxazol-4-amine], for which the IC50 was no more than 300 nM in experiment [1]; no more than 300 nM in experiment [2]; no more than 300 nM in experiment [3]; 300 to 3000 nM in experiment [5]; 300 to 3000 nM in experiment [6].

For the compound `CNc1ncc(-c2c(C)noc2C)cc1NCc1ccccc1` [Example 45, N3-benzyl-5-(3,5-dimethylisoxazol-4-yl)-N2-methylpyridine-2,3-diamine], the IC50 is no more than 300 nM in experiment [1]; no more than 300 nM in experiment [2]; 300 to 3000 nM in experiment [3]; 300 to 3000 nM in experiment [5]; 300 to 3000 nM in experiment [6].

Turning to `COc1ncc(-c2c(C)noc2C)cc1Nc1c(C)nn(C)c1C` [Example 60, 5-(3,5-dimethylisoxazol-4-yl)-2-methoxy-N-(1,3,5-trimethyl-1H-pyrazol-4-yl)pyridin-3-amine], the IC50 was no more than 300 nM in experiment [1], no more than 300 nM in experiment [2], no more than 300 nM in experiment [3] and 300 to 3000 nM in experiment [5].

Turning to `COc1ncc(-c2c(C)noc2C)cc1Nc1cc(C#N)ccc1C` [Example 61, 3-((5-(3,5-dimethylisoxazol-4-yl)-2-methoxypyridin-3-yl)amino)-4-methylbenzonitrile], the IC50 in experiment [1] was 3000 to 30000 nM; in experiment [2] it was no more than 300 nM. Moreover, the c-myc activity entry in experiment [3] was “Not Active”. For the same compound, in experiment [5], the “Cell Proliferation activity” value is on record as “Not Active”.

`COc1ncc(-c2c(C)noc2C)cc1Nc1cc(C(N)=O)ccc1C` [Example 62, 3-((5-(3,5-dimethylisoxazol-4-yl)-2-methoxypyridin-3-yl)amino)-4-methylbenzamide]: the IC50 in experiment [1] is 300 to 3000 nM; in experiment [2] it was no more than 300 nM; in experiment [3] it was 300 to 3000 nM; in experiment [5], 3000 to 30000 nM.

In the case of `COc1ncc(-c2c(C)noc2C)cc1Nc1cn(C)nc1C` [Example 63, N-(1,3-dimethyl-1H-pyrazol-4-yl)-5-(3,5-dimethylisoxazol-4-yl)-2-methoxypyridin-3-amine], the IC50 in experiment [1] is 300 to 3000 nM; in experiment [2] it was no more than 300 nM; in experiment [3], 300 to 3000 nM; in experiment [5], 300 to 3000 nM.

Take `CNc1ncc(-c2c(C)noc2C)cc1Nc1cc(C#N)ccc1C` [Example 64, 3-((5-(3,5-dimethylisoxazol-4-yl)-2-(methylamino)pyridin-3-yl)amino)-4-methylbenzonitrile]: the IC50 was 300 to 3000 nM in experiment [1], 300 to 3000 nM in experiment [2], 300 to 3000 nM in experiment [3] and 3000 to 30000 nM in experiment [5].

`COc1ncc(-c2c(C)noc2C)cc1Oc1cc(C#N)ccc1C` [Example 65, 3-((5-(3,5-dimethylisoxazol-4-yl)-2-methoxypyridin-3-yl)oxy)-4-methylbenzonitrile]: the IC50 in experiment [1] is 300 to 3000 nM; in experiment [2], 300 to 3000 nM; in experiment [3] it was 3000 to 30000 nM; in experiment [5], 3000 to 30000 nM.

In the case of `COc1ncc(-c2c(C)noc2C)cc1Oc1cccnc1C` [Example 66, 4-(6-methoxy-5-((2-methylpyridin-3-yl)oxy)pyridin-3-yl)-3,5-dimethylisoxazole], the IC50 in experiment [1] lay in the range of 300 to 3000 nM; in experiment [2] it was 300 to 3000 nM; in experiment [3] it was 3000 to 30000 nM; in experiment [5], 3000 to 30000 nM.

`COc1ncc(-c2c(C)noc2C)cc1Oc1cc(C(N)=O)ccc1C` [Example 67, 3-((5-(3,5-dimethylisoxazol-4-yl)-2-methoxypyridin-3-yl)oxy)-4-methylbenzamide]: the IC50 in experiment [1] was 300 to 3000 nM; in experiment [2] it was no more than 300 nM; in experiment [3], 300 to 3000 nM; in experiment [5] it was 3000 to 30000 nM.

Turning to `CNc1ncc(-c2c(C)noc2C)cc1NCc1ccsc1` [Example 68, 5-(3,5-dimethylisoxazol-4-yl)-N2-methyl-N3-(thiophen-3-ylmethyl)pyridine-2,3-diamine], the IC50 in experiment [1] was 300 to 3000 nM; in experiment [2] it was no more than 300 nM; in experiment [3], 300 to 3000 nM; in experiment [5], 300 to 3000 nM.
